Measured values: patent US20210029991A1, “TRISILOXANE ALKOXYLATE COMPOSITIONS” (Momentive Performance Materials Inc., priority 2018, published 2021)
“And” between values parts separate entries of the source, which are not always exact repeats. Equal values may be shown once.

Assays:
bean leaf (Vicia faba) = test: Uptake (stomatal infiltration) of ^14C-glyphosate isopropylamine salt into bean leaf; type: in vivo
Experimental: The impact of the TSA-1/TSA-2 blends on the uptake of ^14C-glyphosate (herbicide) solutions into bean leaf (Vicia fava) was determined at 10 minutes after application, according to the method described by Stevens et al., Contributions of stomatal infiltration and cuticular penetration to enhancements of foliar uptake by surfactants. […]. Sci., 33, 371-382, to establish the contribution of trisiloxane alkoxylate (TSA) surfactants on the speed of uptake, via stomatal infiltration). Here glyphosate solutions containing 0.4% TSA surfactant was applied to bean leaf using a micro-syringe. At 10 minutes after application, the leaf was washed with aqueous ethanol and uptake was determined by subtraction, using a scintillation counter to measure residual ^14C-glyphosate-IPA salt (Stevens et al. […]. Sci., 33, 371-382). The uptake by stomatal infiltration of ^14C-glyphosate-isopropyl amine salt into bean-leaf (Vicia faba) at 10 minutes after application was determined as outlined in Example 4.

[1] = Dynamic surface tension (Kruss Maximum Bubble Pressure tensiometer); type: physicochemical; conditions: 0.4 wt % in deionized water
Experimental: Dynamic surface tension (DST) was measured using a Kruss Maximum Bubble Pressure tensiometer. TSA solutions were prepared at 0.4 wt % in deionized water, further purified with a Milli-Q ultrapure filtration system (Millipore Corp.). The data for surface tension vs time (milliseconds) was plotted and then the surface tension was calculated from a trend line to generate surface tension data at 75, 100, 150 and 200 milliseconds (mSec).

C[Si](C)(C)O[Si](C)(CCCOCCOCCOCCOCCOCCOCCOCCOCCO)O[Si](C)(C)C [TSA-1-B]
Uptake (%) Observed (bean leaf (Vicia faba); ^14C-glyphosate into bean, 0.4% TSA adjuvant, 10 minutes after application): 79.3 ab % and 90.2 a % and 88.0 ab % and 85.9 a %
Uptake (%) Predicted (bean leaf (Vicia faba); weighted average of the components, 0.4% adjuvant, 10 minutes): 79.3% and 90.2% and 88.0% and 85.9%
Dynamic Surface Tension, IFDT 75 mSec ([1]; calculated from trend line at 75 mSec): 49.5 mN/m
Dynamic Surface Tension, IFDT 100 mSec ([1]; calculated from trend line at 100 mSec): 47.6 mN/m
Dynamic Surface Tension, IFDT 150 mSec ([1]; calculated from trend line at 150 mSec): 43.9 mN/m
Dynamic Surface Tension, IFDT 200 mSec ([1]; calculated from trend line at 200 mSec): 40.1 mN/m
